As usually defined, the solubility is the concentration that dissolves in the medium under given conditions.

This note sets out measurements from patent US9579384B2, “Method of treating bendamustine-responsive conditions in patients requiring reduced volumes for administration” (Eagle Pharmaceuticals, Inc., priority 2012, dated 2017).

Series [1] can be described thus: Measured solubility of bendamustine HCl in the diluent/solubilizer combination at room temperature. The format is physicochemical. Conditions: aqueous with cosolvent or surfactant or cyclodextrin. The protocol:
The solubility of the diluent/solubilizer combination far exceeded the bendamustine concentration, thus assuring the avoidance of precipitated drug prior to or during administration. As will be appreciated by those of ordinary skill, as the concentration of solubilizers increases with respect to the total volume in small administration doses, the solubility of the bendamustine is maintained.
Bendamustine formulations containing the above ingredients are capable of delivering approximately 360 mg of the drug as the HCl salt in volumes of pharmaceutically acceptable diluent ranging from about 120 ml down to about 15 ml.

A short description of series [2]: Observation of precipitation in the IV fluid during administration to patient. The format is physicochemical. The protocol: In this example, a patient diagnosed with chronic lymphocytic leukemia (CLL) and having chronic kidney disease (GFR<30 ml/min/1.73 m^2) is begun on a treatment protocol with bendamustine. In particular, the patient is administered 360 mg of bendamustine as part of an approximately 114.4 ml infusion on days 1 and 2 of a 28 day cycle. The intravenous formulation is prepared by drawing up 14.4 ml of an RTU (ready to use) liquid containing bendamustine HCl 25 mg/ml, PG 103.2 mg/ml, PEG 1013.4 mg/ml, monothioglycerol 5 mg/ml and 0.08 mg/ml NaOH and mixing it into a 100 ml bag containing 0.9% NaCl. The final bendamustine concentration for the IV fluid is 3.15 mg/ml. The infusion is administered to the patient in less than 15 minutes.
The process of Example 1 is repeated except that the IV infusion volume is approximately 64.4 ml. The same 14.4 ml of an RTU (ready to use) liquid containing bendamustine HCl 25 mg/ml, PG 103.2 mg/ml, PEG 1013.4 mg/ml, monothioglycerol 5 mg/ml and 0.08 mg/ml NaOH is used and it is mixed into a 50 ml bag containing 0.9% NaCl. The final bendamustine concentration for the IV fluid is 5.59 mg/ml. The infusion is administered to the patient in less than 10 minutes.

Molecules are shown by their SMILES. Structures can show the parent of a compound that is named as a salt.

With `Cn1c(CCCC(=O)O)nc2cc(N(CCCl)CCCl)ccc21` [bendamustine HCl, Bendamustine HCl], the solubility in series [1] (half normal saline/dextrose diluent/solubilizer combination, 50 ml half normal saline/dextrose + 1 ml of 25 mg/ml bendamustine HCl and solubilizers (PG, PEG 400)) worked out at 14.2 mg/mL; in series [1] (normal saline diluent/solubilizer combination, 50 ml normal saline + 1 ml of 25 mg/ml bendamustine HCl and solubilizers (PG, PEG 400)) it was 10.5 mg/mL. The “precipitation of bendamustine in the IV fluid during administration” value in series [2] (14.4 ml RTU liquid (25 mg/ml) in 50 ml 0.9% NaCl, final 5.59 mg/ml, infusion in less than 10 minutes) is on record as “No precipitated bendamustine is observed”; in series [2] (14.4 ml RTU liquid (25 mg/ml) in 100 ml 0.9% NaCl, final 3.15 mg/ml, infusion in less than 15 minutes), “No precipitated bendamustine is observed”.
